Where a chain is given by its changes, count along the chain named. Where a name gives a salt, the structure may show the parent alone.
Columns and labels:
[1] = biological target: T1, FLT3-ITD-F691L Ba/F3 cells (Homo sapiens, UniProt P36888, F691L, cells depend on it, form not given); test: Growth inhibitory activity against Ba/F3 cell line; type: cell-based; conditions: Ba/F3 expressing FLT3-ITD-F691L; 72 hours; cell titer glo; read-out: IC50 (uM) FLT3-ITD-F691L
T1 sequence (P36888 1-993 F691L): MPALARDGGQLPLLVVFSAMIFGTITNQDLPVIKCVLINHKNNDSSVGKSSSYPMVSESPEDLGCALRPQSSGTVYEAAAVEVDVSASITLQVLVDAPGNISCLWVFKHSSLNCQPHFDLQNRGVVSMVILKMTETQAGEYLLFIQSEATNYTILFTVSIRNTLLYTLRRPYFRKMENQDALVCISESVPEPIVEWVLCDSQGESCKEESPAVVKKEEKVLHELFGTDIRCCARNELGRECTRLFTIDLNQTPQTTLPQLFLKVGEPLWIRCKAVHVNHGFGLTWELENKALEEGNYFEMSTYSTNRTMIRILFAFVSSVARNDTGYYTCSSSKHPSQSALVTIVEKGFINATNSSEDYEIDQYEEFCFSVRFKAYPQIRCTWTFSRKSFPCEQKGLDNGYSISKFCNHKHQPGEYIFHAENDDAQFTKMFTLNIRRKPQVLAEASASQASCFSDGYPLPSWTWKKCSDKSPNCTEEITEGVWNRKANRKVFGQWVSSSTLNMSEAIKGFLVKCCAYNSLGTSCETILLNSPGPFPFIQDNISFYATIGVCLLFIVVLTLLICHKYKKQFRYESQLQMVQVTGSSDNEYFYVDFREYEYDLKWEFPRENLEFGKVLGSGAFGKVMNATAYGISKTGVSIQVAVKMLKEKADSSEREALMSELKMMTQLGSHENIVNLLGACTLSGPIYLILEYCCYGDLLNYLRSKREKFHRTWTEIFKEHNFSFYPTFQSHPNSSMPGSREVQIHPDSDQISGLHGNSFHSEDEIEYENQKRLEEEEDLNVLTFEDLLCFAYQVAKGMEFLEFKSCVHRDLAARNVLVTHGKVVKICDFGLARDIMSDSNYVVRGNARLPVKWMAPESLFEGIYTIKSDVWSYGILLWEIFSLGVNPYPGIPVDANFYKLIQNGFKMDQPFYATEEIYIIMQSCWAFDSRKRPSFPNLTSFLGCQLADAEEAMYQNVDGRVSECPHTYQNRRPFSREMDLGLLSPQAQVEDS
Experimental: (§1) A Ba/F3 cell line expressing an FLT3 mutation gene was cultured in a culture solution including 90% RPMI, 10% FBS, and an antibiotic (Welgene). 100 uL of the Ba/F3 cell line was put into each of 5,000 wells of a TC-treated 96 well plate (SPL), and then 1 uL of a test compound diluted in dimethylsulfoxide (diluted for each 3 paint from a concentration of 1 mM, total 10 concentrations) was each injected thereinto. Thereafter, the resulting cell lines were incubated in a cell culture incubator for 72 hours. 50 uL of a cell titer glo (Promega) solution was added thereto, the resulting mixture was stored at room temperature for 10 minutes, and then the light emission intensity was measured by using a reader (Envision, PerkinElmer). The light emission intensity was shown as a graph for each final concentration of the test compound, and the GI50 value was obtained by using a Prism 5.0 (GraphPad) software.

[2] = biological target: T2, FLT3-ITD-F691L-D835Y Ba/F3 cells (Homo sapiens, UniProt P36888, F691L/D835Y, cells depend on it, form not given); test: Growth inhibitory activity against Ba/F3 cell line; type: cell-based; conditions: Ba/F3 expressing FLT3-ITD-F691L-D835Y; 72 hours; cell titer glo; read-out: IC50 (uM) FLT3-ITD-F691L-D835Y
T2 sequence (P36888 1-993 F691L/D835Y): T1 sequence (P36888 1-993 F691L) with D835Y
Experimental: as §1

| SMILES | GI50 [1] [µM] | GI50 [2] [µM] |
| --- | --- | --- |
| NC(=O)Nc1cc(C#Cc2cccc(F)c2)sc1C(=O)NC1CCNC1 (stereo not shown) [Example 40, 5-((3-fluorophenyl)ethynyl)-N-(pyrrolidin-3-yl)-3-ureidothiophene-2-carboxamide] | 0.848 | 0.079 |
| Cn1cc(C#Cc2cc(NC(N)=O)c(C(=O)N[C@H]3CCCCNC3)s2)cn1 [Example 41, (S)—N-(azepan-3-yl)-5-((1-methyl-1H-pyrazol-4-yl)ethynyl)-3-ureidothiophene-2-carboxamide trifluoroacetate] | 0.078 | 0.007 |
| NC(=O)Nc1cc(C#Cc2cn[nH]c2)sc1C(=O)N[C@H]1CCCCNC1 [Example 42, (S)-5-((1H-pyrazol-4-yl)ethynyl)-N-(azepan-3-yl)-3-ureidothiophene-2-carboxamide trifluoroacetate] | 5.23 | 0.116 |
| CCn1cc(C#Cc2cc(NC(N)=O)c(C(=O)N[C@H]3CCCCNC3)s2)cn1 [Example 43, (S)—N-(azepan-3-yl)-5-((l-ethyl-1H-pyrazol-4-yl)ethynyl)-3-ureidothiophene-2-carboxamide trifluoroacetate] | 0.2 | 0.006 |
| CC(C)n1cc(C#Cc2cc(NC(N)=O)c(C(=O)N[C@H]3CCCCNC3)s2)cn1 [Example 44, (S)—N-(azepan-3-yl)-5-((1-isopropyl-1H-pyrazol-4-yl)ethynyl)-3-ureidothiophene-2-carboxamide trifluoroacetate] | 0.214 | 0.004 |
| COCCn1cc(C#Cc2cc(NC(N)=O)c(C(=O)N[C@H]3CCCCNC3)s2)cn1 [Example 45, (S)—N-(azepan-3-yl)-5-((1-(2-methoxyethyl)-1H-pyrazol-4-yl)ethynyl)-3-ureidothiophene-2-carboxamide trifluoroacetate] | 1.34 | 0.019 |
| NC(=O)Nc1cc(C#Cc2cnn(C3CCOCC3)c2)sc1C(=O)N[C@H]1CCCCNC1 [Example 46, (S)—N-(azepan-3-yl)-5-((1-(tetrahydro-2H-pyran-4-yl)-1H-pyrazol-4-yl)ethynyl)-3-ureidothiophene-2-carboxamide trifluoroacetate] | 0.075 | 0.003 |
| CS(=O)(=O)N1CCC(n2cc(C#Cc3cc(NC(N)=O)c(C(=O)N[C@H]4CCCCNC4)s3)cn2)CC1 [Example 47, (S)—N-(azepan-3-yl)-5-((1-(1-(methylsulfonyl)piperidin-4-yl)-1H-pyrazol-4-yl)ethynyl)-3-ureidothiophene-2-carboxamide trifluoroacetate] | 0.645 | 0.04 |
| NC(=O)Nc1cc(C#Cc2ccsc2)sc1C(=O)N[C@H]1CCCCNC1 [Example 48, (S)—N-(azepan-3-yl)-5-(thiophen-3-ylethynyl)-3-ureidothiophene-2-carboxamide trifluoroacetate] | 0.083 | 0.004 |
| CC(=O)N1CCC(n2cc(C#Cc3cc(NC(N)=O)c(C(=O)N[C@H]4CCCCNC4)s3)cn2)CC1 [Example 49] | 0.616 | 0.031 |
| NC(=O)Nc1cc(C#Cc2cccc(F)c2)sc1C(=O)N[C@H]1CCCCNC1 [Example 50, (S)—N-(azepan-3-yl)-5-((3-fluorophenyl)ethynyl)-3-ureidothiophene-2-carboxamide] | 0.174 | 0.006 |
| Cn1cc(CCc2cc(NC(N)=O)c(C(=O)N[C@H]3CCCCNC3)s2)cn1 [Example 52, (S)—N-(azepan-3-yl)-5-(2-(1-methyl-1H-pyrazol-4-yl)ethyl)-3-ureidothiophene-2-carboxamide trifluoroacetate] | > 100 | > 4 |
| NC(=O)Nc1cc(CCc2cccc(F)c2)sc1C(=O)N[C@H]1CCCNC1 [Example 53] | 1.39 | 0.149 |
| NC(=O)Nc1cc(CCc2cccc(F)c2)sc1C(=O)N[C@H]1CCCCNC1 [Example 54, (S)—N-(azepan-3-yl)-5-(3-fluorophenethyl)-3-ureidothiophene-2-carboxamide] | 7.47 | 1.02 |
